We go through 13 compounds from ChEMBL document CHEMBL1145560, “Use of receptor chimeras to identify small molecules with high affinity for the dynorphin A binding domain of the kappa opioid receptor” (Bioorg Med Chem Lett, 2008).

Assay [1] can be described thus: Displacement of [3H]diprenorphine from human kappa/mu opioid chimera 4 receptor. In general terms: Loss of bound radioactivity is the signal in a displacement assay; it reports binding, not function.
Assay [2] in a line: Displacement of [3H]diprenorphine from human kappa/mu opioid chimera 3 receptor.
Assay [3] concerns the target T1, Kappa-type opioid receptor (Homo sapiens, UniProt P41145). The experiment in a line: Agonist activity at human kappa opioid receptor transfected in CHO cells by [35S]GTP-gamma-S binding assay. It counts as functional, cell-based. On the technique in general: GTPγS resists hydrolysis and so accumulates on activated G proteins.
The next assay concerns the target Mu-type opioid receptor (Homo sapiens, UniProt P35372). As to the kind of experiment: Displacement of [3H]diprenorphine from human mu opioid receptor expressed in CHO-K1 cells. In kind it is cell-based.
Assay [4] addresses T1, Kappa-type opioid receptor. As to the kind of experiment: Displacement of [3H]diprenorphine from human kappa opioid receptor expressed in CHO-K1 cells. In kind it is cell-based.
Assay [5] has as its target Delta-type opioid receptor (Homo sapiens, UniProt P41143). As to the kind of experiment: Displacement of [3H]diprenorphine from human delta opioid receptor expressed in CHO-K1 cells. It counts as cell-based.

Chain of Mu-type opioid receptor (P35372 whole entry): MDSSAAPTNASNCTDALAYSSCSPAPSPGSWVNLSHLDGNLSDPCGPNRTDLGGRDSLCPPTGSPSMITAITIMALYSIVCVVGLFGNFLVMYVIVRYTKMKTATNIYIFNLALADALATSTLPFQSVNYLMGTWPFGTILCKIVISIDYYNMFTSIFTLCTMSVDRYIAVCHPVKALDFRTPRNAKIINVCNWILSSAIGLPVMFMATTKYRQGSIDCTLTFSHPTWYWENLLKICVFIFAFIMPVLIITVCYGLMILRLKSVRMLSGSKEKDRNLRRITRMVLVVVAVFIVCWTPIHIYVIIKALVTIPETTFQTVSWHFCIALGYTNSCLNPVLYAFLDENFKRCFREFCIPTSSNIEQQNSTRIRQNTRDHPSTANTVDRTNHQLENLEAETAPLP
T1 sequence (P41145 whole entry): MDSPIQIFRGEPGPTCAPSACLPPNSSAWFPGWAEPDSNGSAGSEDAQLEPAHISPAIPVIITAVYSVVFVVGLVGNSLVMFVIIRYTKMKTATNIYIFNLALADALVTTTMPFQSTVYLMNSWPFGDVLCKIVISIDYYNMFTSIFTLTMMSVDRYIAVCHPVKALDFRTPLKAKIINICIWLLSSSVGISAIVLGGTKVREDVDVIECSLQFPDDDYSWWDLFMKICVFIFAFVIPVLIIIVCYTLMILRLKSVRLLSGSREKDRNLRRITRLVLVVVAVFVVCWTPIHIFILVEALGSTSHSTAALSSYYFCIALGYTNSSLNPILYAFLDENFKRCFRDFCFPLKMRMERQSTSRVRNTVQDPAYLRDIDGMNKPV
Chain of Delta-type opioid receptor (P41143 whole entry): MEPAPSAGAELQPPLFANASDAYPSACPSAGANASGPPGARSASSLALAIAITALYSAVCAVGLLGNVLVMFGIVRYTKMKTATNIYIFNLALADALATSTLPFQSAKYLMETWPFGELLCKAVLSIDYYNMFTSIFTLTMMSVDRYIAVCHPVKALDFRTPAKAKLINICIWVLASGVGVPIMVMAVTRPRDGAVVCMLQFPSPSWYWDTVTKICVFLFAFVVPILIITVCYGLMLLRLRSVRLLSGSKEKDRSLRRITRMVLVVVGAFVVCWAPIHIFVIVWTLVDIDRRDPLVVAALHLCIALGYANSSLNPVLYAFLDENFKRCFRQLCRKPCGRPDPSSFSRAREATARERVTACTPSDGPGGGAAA

Consider `CC[C@H](C)[C@H](NC(=O)[C@H](CCCNC(=N)N)NC(=O)[C@H](CCCNC(=N)N)NC(=O)[C@H](CC(C)C)NC(=O)[C@H](Cc1ccccc1)NC(=O)CNC(=O)CNC(=O)[C@@H](N)Cc1ccc(O)cc1)C(=O)N[C@@H](CCCNC(=N)N)C(=O)N1CCC[C@H]1C(=O)N[C@@H](CCCCN)C(=O)N[C@@H](CC(C)C)C(=O)N[C@@H](CCCCN)C(=O)N[C@@H](Cc1c[nH]c2ccccc12)C(=O)N[C@@H](CC(=O)O)C(=O)N[C@@H](CC(N)=O)C(=O)N[C@@H](CCC(N)=O)C(=O)O` [DYNORPHIN A (1-17)], for which the Ki is 0.18 nM in assay [1] and 0.31 nM in assay [2].

As to `CN(C(=O)Cc1cc2c(cc1S(=O)(=O)N(C)C)OCO2)[C@H](CN1CC[C@H](O)C1)c1ccccc1`, the Ki in assay [1] amounted to 0.5 nM; on Mu-type opioid receptor it was 34 nM; in assay [4] it was 0.54 nM; in assay [5], 6.2 nM; in assay [2] it was 4.5 nM. The midpoint of the response in assay [3], the EC50, lay at 0.11 nM.

In turn, `COc1cc(CC(=O)N(C)[C@H](CN2CC[C@H](O)C2)c2ccccc2)c(S(=O)(=O)N2CCOCC2)cc1OC` registered an EC50 in assay [3] of 0.34 nM. Besides, the results for the Ki (on Mu-type opioid receptor; in assay [4]; in assay [5]) were 9 nM, 1.4 nM and 1.8 nM, respectively.

Take `COc1cc(CC(=O)N(C)[C@H](CN2CCCC2)c2ccccc2)c(S(=O)(=O)N2CCCC2)cc1OC`: the Ki in assay [1] came to 1.2 nM; on Mu-type opioid receptor, 14 nM; in assay [4], 0.31 nM; in assay [5] it was 5.4 nM; in assay [2], 1.5 nM. For the same compound, the EC50 in assay [3] was determined as 0.11 nM.

Consider `COc1cc(CC(=O)N(C)[C@H](CN2CC[C@H](O)C2)c2ccccc2)c(S(=O)(=O)N(C)C)cc1OC`, for which the Ki in assay [1] stood at 2.8 nM; at Mu-type opioid receptor, 25 nM; in assay [4], 1.6 nM; in assay [5] it was 9.3 nM; in assay [2], 6.4 nM. In addition, it took 0.24 nM to reach a half-maximal effect in assay [3] (EC50).

With `COc1cc(CC(=O)N(C)[C@H](CN2CC[C@H](O)C2)c2ccccc2)c(S(=O)(=O)N2CCCC2)cc1OC`, the Ki is 8.3 nM in assay [1]; 5.9 nM on Mu-type opioid receptor; 1.1 nM in assay [4]; 0.85 nM in assay [5]; 38 nM in assay [2]. Further, the response in assay [3] was half-maximal at 0.12 nM (EC50).

As to `COc1cc(CC(=O)N(C)[C@H](CN2CCCC2)c2ccccc2)c(S(=O)(=O)N(C)C)cc1OC`, the Ki was 2.5 nM in assay [1]; 42 nM on Mu-type opioid receptor; 0.5 nM in assay [4]; 56 nM in assay [5]; 3.2 nM in assay [2]. This compound gave an EC50 in assay [3] of 0.26 nM.

As for `CN(C(=O)Cc1cc2c(cc1S(=O)(=O)N(C)Cc1ccccc1)OCO2)[C@H](CN1CCCC1)c1ccccc1`, the Ki in assay [1] was 1.7 nM; on Mu-type opioid receptor, 6.5 nM; in assay [4] it was 0.19 nM; in assay [5], 3.4 nM; in assay [2], 5.5 nM. This compound also displayed an EC50 in assay [3] of 0.12 nM.

On to `COc1cc(CC(=O)N(C)[C@H](CN2CC[C@H](O)C2)c2ccccc2)c(S(=O)(=O)N2CCN(C)CC2)cc1OC`, for which, in assay [3], a half-maximal response (EC50) required 0.71 nM. The Ki is 27 nM on Mu-type opioid receptor, 3.8 nM in assay [4] and 4.4 nM in assay [5].

Turning to `COc1cc(CC(=O)N(C)[C@H](CN2CCCC2)c2ccccc2)c(S(=O)(=O)N2CCN(C)CC2)cc1OC`, the Ki in assay [1] worked out at 6.8 nM; on Mu-type opioid receptor, 52 nM; in assay [5] it was 23 nM; in assay [2] it was 4.8 nM. Further, a half-maximal effect in assay [3] (EC50) was put at 0.39 nM.

In the case of `COc1cc(CC(=O)N(C)[C@H](CN2CCCC2)c2ccccc2)c(S(=O)(=O)N(C)Cc2ccccc2)cc1OC`, the Ki in assay [1] was determined as 4.8 nM; on Mu-type opioid receptor it was 21 nM; in assay [4] it was 0.68 nM; in assay [5], 1.5 nM; in assay [2] it was 3.3 nM. Besides, the EC50 in assay [3] amounted to 0.54 nM.

Turning to `CN(C(=O)Cc1cc2c(cc1S(=O)(=O)N(C)C)OCO2)[C@H](CN1CCCC1)c1ccccc1`, the Ki in assay [1] was found to be 0.71 nM; on Mu-type opioid receptor it was 47 nM; in assay [4], 0.22 nM; in assay [5], 110 nM; in assay [2], 5.2 nM. In assay [3], this compound came in with a half-maximal effective concentration (EC50) of 0.1 nM.

As for `COc1cc(CC(=O)N(C)[C@H](CN2CCCC2)c2ccccc2)c(S(=O)(=O)N2CCOCC2)cc1OC`, the Ki in assay [1] stood at 2.2 nM; at Mu-type opioid receptor it was 15 nM; in assay [4], 0.55 nM; in assay [5], 9.4 nM; in assay [2] it was 1.3 nM. Besides, in assay [3], the response was half-maximal at 0.17 nM (EC50).

In general, Ki refers to the equilibrium dissociation constant of an inhibitor or competing ligand from its target. Higher therefore signals lower affinity. In general, EC50 refers to the concentration that produces a half-maximal response.
